# Source: paper PMC6934184, “Selective DNA-PKcs inhibition extends the therapeutic index of localized radiotherapy and chemotherapy” (The Journal of Clinical Investigation, 2019)
# Molecular target: T1, SLK (Homo sapiens, UniProt Q9H2G2)
# T1 construct: purchased Thermo Fisher Scientific (Life Technologies) SelectScreen
# Assay: SelectScreen LanthaScreen
# Type: binding
# Conditions: read-out: % displacement
# Procedure, shortened: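 Percent values come from Thermo SelectScreen profiling of NU5455, combining activity and binding assays. CSF1R was run in Z'LYTE format at Km app ATP, and CAMK1 in Adapta format with ATP listed at 10.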
# T1 sequence (Q9H2G2 whole entry): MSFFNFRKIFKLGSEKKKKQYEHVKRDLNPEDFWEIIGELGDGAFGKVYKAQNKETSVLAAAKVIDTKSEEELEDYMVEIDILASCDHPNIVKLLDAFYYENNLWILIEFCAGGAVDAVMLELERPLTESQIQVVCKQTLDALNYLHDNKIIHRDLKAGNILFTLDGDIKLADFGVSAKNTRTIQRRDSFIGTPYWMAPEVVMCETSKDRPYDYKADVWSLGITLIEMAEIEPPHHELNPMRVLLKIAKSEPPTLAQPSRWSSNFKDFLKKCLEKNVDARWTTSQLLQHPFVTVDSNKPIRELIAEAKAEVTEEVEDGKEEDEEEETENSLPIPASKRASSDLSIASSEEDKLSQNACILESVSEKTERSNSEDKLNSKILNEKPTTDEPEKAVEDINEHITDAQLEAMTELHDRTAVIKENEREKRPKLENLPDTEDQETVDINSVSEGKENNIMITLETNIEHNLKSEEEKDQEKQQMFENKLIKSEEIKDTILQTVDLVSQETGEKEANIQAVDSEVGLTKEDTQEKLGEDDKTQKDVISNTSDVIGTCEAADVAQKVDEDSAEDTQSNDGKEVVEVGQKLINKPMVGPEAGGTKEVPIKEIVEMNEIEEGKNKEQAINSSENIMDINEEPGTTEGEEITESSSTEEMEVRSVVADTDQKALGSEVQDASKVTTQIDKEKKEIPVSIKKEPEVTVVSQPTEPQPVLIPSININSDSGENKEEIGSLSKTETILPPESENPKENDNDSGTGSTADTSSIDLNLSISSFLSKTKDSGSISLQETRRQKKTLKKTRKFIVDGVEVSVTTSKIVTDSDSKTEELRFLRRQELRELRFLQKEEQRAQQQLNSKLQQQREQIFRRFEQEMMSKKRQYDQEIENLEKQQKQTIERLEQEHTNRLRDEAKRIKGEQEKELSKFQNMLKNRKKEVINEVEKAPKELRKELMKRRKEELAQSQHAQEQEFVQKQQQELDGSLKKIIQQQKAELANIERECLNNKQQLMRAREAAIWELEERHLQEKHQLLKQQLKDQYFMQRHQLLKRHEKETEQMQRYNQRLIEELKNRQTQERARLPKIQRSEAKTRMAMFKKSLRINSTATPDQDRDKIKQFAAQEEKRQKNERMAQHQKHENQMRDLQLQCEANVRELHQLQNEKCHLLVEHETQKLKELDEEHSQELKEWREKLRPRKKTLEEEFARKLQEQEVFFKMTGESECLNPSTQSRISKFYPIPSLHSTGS
smiles,measurement,value
CN(C(=O)CN1CCOCC1)c1ccc2sc3c(-c4cccc5c(=O)cc(N6CC7CCC(C6)O7)oc45)cccc3c2c1 [NU5455],inhibition at 1 µM,1.5%
